From patent publication US20230365555A1, “CRYSTALLINE POLYMORPH FORM A OF A JAK INHIBITORAND METHODS FOR ITS PREPARATION” (ACLARIS THERAPEUTICS, INC., priority 2020, published 2023)

Test: Dynamic vapor sorption (DVS) analysis
Type: physicochemical
Settings: bulk material, a batch of Compound 1; FIG. 5

In the case of `CCOC(=O)c1cnc2[nH]ccc2c1N[C@@H]1CCCN(C(=O)CC#N)C1` [Compound 1, ethyl (R)-4-((1-(2-cyanoacetyl)piperidin-3-yl)amino)-1H-pyrrolo[2,3-b]pyridine-5-carboxylate], the “moisture uptake (DVS isotherms)” value is reported as “low moisture uptake”.
